Measurements published in ChEMBL document CHEMBL6182905, “Fluorinated sulfonamide-flavonoid derivatives as novel Keap1-Nrf2 inhibitors: Potent induction of cytoprotective gene HO-1 in vivo” (Eur J Med Chem, 2025).
Active and inactive are the calls of the source. The calls are words filed in the database; no cut-off is given here.

Columns and labels:
[1] = Cmax in Sprague-Dawley rat at 10 mg/kg, po; type: ADME, organism-based; conditions: in vivo
Mus musculus [2] = assay: Anti-inflammatory activity in APAP-induced C57BL/6 mouse model of acute liver injury assessed as reduction in neutrophil invasion in liver at 12.5 to 25 mg/kg, ip measured after 12 hrs by immunohistochemical staining based analysis; type: functional, organism-based; conditions: dose 12.5-25 mg/kg
Mus musculus [3] = assay: Anti-inflammatory activity against APAP-induced male C57BL/6 mouse model of acute liver injury assessed as restoration of HO-1 protein level in liver at 12.5 to 25 mg/kg, ip measured after 12 hrs by Western blot analysis; type: functional, organism-based; conditions: dose 12.5-25 mg/kg
Mus musculus [4] = assay: Anti-inflammatory activity in APAP-induced Nrf2 knockout male C57BL/6 mouse model of acute liver injury assessed as increase in F4/80 positive cells in liver at 25 mg/kg, ip preadministered with compound followed by APAP induction and measured after 12 hrs by staining based analysis; type: functional, organism-based
[5] = Toxicity in C57BL/6J mouse assessed as histopathological change in respiratory tissue at 25 mg/kg, ip by H and E staining based analysis; type: organism-based; conditions: in vivo
[6] = target: T1, Nuclear factor erythroid 2-related factor 2 (Mus musculus) (UniProt Q60795); assay: Activation of Nrf2 in LPS-stimulated mouse AML12 cells assessed as upregulation of HO-1 protein level incubated for 16 hrs by Western blot analysis; type: cell-based; conditions: filed as activator, dose 0.5-10 µM
T1 sequence (whole entry): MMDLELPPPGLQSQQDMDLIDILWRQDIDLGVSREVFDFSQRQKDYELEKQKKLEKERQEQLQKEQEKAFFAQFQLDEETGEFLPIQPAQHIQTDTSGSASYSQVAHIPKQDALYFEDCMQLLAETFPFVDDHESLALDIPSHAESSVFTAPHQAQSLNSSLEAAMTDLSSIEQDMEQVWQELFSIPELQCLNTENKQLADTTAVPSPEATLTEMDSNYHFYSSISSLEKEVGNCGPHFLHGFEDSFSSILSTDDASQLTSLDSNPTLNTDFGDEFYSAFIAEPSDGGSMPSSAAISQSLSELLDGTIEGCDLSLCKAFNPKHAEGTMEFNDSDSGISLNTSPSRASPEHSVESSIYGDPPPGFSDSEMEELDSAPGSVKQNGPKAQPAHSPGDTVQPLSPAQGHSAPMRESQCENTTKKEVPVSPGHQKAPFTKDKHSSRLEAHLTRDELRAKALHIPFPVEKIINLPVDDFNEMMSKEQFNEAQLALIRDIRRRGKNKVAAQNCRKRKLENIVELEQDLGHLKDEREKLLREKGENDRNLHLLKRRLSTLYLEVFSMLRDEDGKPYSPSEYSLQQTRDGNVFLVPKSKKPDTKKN

Mus musculus [7] = assay: Anti-inflammatory activity against APAP-induced male C57BL/6 mouse model of acute liver injury assessed as upregulation of HO-1 mRNA level in liver administered intraperitoneally and measured after 12 hrs by RT-qPCR analysis; type: functional, organism-based; conditions: dose 12.5-25 mg/kg, route ip
[8] = Tmax in Sprague-Dawley rat at 1 mg/kg, iv; type: ADME, organism-based; conditions: in vivo
Mus musculus [9] = assay: Hepatoprotective activity in APAP-induced male C57BL/6 mouse model of acute liver injury assessed as attenuation of catalase (CAT) level in liver at 12.5 to 25 mg/kg, ip measured after 12 hrs; type: functional, organism-based; conditions: dose 12.5-25 mg/kg
Mus musculus [10] = assay: Hepatoprotective activity in APAP-induced male C57BL/6 mouse model of acute liver injury assessed as reduction in ALT level in liver at 12.5 to 25 mg/kg, ip measured after 12 hrs; type: functional, organism-based; conditions: dose 12.5-25 mg/kg
[11] = Drug concentration in plasma of APAP-induced acute liver injury male C57BL/6 mouse model at 12.5 mg/kg, ip pre-administered with compound for 1 hr followed by APAP induction and measured after 12 hrs by Mass spectrometric analysis; type: ADME, organism-based
Mus musculus [12] = assay: Anti-inflammatory activity in APAP-induced C57BL/6 mouse model of acute liver injury assessed as reduction in TNFalpha level in serum at 12.5 to 25 mg/kg, ip measured after 12 hrs by ELISA; type: functional, organism-based; conditions: dose 12.5-25 mg/kg
[13] = Toxicity in C57BL/6J mouse assessed as histopathological change in hepatic tissue at 25 mg/kg, ip by H and E staining based analysis; type: organism-based; conditions: in vivo
Mus musculus [14] = assay: Hepatoprotective activity in APAP-induced Nrf2 knockout male C57BL/6 mouse model of acute liver injury assessed as reduction in liver damage at 25 mg/kg, ip preadministered with compound followed by APAP induction and measured after 12 hrs by H and E staining based analysis; type: functional, organism-based
[15] = Elimination half life in Sprague-Dawley rat at 10 mg/kg, po; type: ADME, organism-based; conditions: in vivo, read-out: beta t1/2 (converted)
[16] = Drug concentration in liver of APAP-induced acute liver injury male C57BL/6 mouse model at 25 mg/kg, ip pre-administered with compound for 1 hr followed by APAP induction and measured after 12 hrs by Mass spectrometric analysis; type: ADME, organism-based; conditions: read-out: Ct
Mus musculus [17] = assay: Anti-inflammatory activity against APAP-induced male C57BL/6 mouse model of acute liver injury assessed as restoration of GCLM protein level in liver at 12.5 to 25 mg/kg, ip measured after 12 hrs by Western blot analysis; type: functional, organism-based; conditions: dose 12.5-25 mg/kg
[18] = Absolute oral bioavailability in Sprague-Dawley rat at 10 mg/kg; type: ADME, organism-based; conditions: in vivo
[19] = Toxicity in C57BL/6J mouse assessed as histopathological change in splenic tissue at 25 mg/kg, ip by H and E staining based analysis; type: organism-based; conditions: in vivo
Mus musculus [20] = assay: Hepatoprotective activity in APAP-induced male C57BL/6 mouse model of acute liver injury assessed as reduction in pathological damage in liver at 12.5 to 25 mg/kg, ip measured after 12 hrs by H and E staining based analysis; type: functional, organism-based; conditions: dose 12.5-25 mg/kg
[21] = AUC (0 to t) last in Sprague-Dawley rat at 10 mg/kg, po; type: ADME, organism-based; conditions: in vivo
[22] = Elimination half life in Sprague-Dawley rat at 1 mg/kg, iv; type: ADME, organism-based; conditions: in vivo, read-out: beta t1/2 (converted)
Mus musculus [23] = assay: Anti-inflammatory activity in APAP-induced Nrf2 knockout male C57BL/6 mouse model of acute liver injury assessed as increase in MPO positive cells in liver at 25 mg/kg, ip preadministered with compound followed by APAP induction and measured after 12 hrs by staining based analysis; type: functional, organism-based
[24] = AUC (0 to t) last in Sprague-Dawley rat at 1 mg/kg, iv; type: ADME, organism-based; conditions: in vivo
Mus musculus [25] = assay: Anti-inflammatory activity against APAP-induced male C57BL/6 mouse model of acute liver injury assessed as upregulation of GCLM mRNA level in liver administered intraperitoneally and measured after 12 hrs by RT-qPCR analysis; type: functional, organism-based; conditions: dose 12.5-25 mg/kg, route ip
Mus musculus [26] = assay: Anti-inflammatory activity in APAP-induced C57BL/6 mouse model of acute liver injury assessed as reduction in IL-6 mRNA level in liver at 12.5 to 25 mg/kg, ip measured after 12 hrs by ELISA; type: functional, organism-based; conditions: dose 12.5-25 mg/kg
[27] = Tmax in Sprague-Dawley rat at 10 mg/kg, po; type: ADME, organism-based; conditions: in vivo
Mus musculus [28] = assay: In vivo inhibition of Keap1/Nrf2 protein-protein interaction in APAP-induced male C57BL/6 mouse model of acute liver injury administered intraperitoneally and measured after 12 hrs by co-immunoprecipitation analysis; type: functional, organism-based; conditions: dose 12.5-25 mg/kg, route ip

## COc1ccc(-c2cc(=O)c3ccc(NS(=O)(=O)c4ccc(F)cc4)cc3o2)cc1
[1]
  Cmax: 1300 ng/mL
Mus musculus [2]
  Activity: Active
Mus musculus [3]
  Activity: Active
Mus musculus [4]
  Activity: inactive
[5]
  Activity: Non-toxic
[6]
  Activity: Dose-dependent-effect
Mus musculus [7]
  Activity: Dose-dependent-effect
[8]
  Tmax: 10.2 min
Mus musculus [9]
  Activity: Active
Mus musculus [10]
  Activity: Active
[11]
  concentration at 13 h: 50 ng/mL
Mus musculus [12]
  Activity: Active
[13]
  Activity: Non-toxic
Mus musculus [14]
  Activity: inactive
[15]
  half-life: 208 min
[16]
  concentration at 13 h: 485 ng/g
Mus musculus [17]
  Activity: Active
[18]
  bioavailability: 19.9%
[19]
  Activity: Non-toxic
Mus musculus [20]
  Activity: Active
[21]
  AUC(0-t): 7690 ng·h/mL
[22]
  half-life: 327 min
Mus musculus [23]
  Activity: inactive
[24]
  AUCt: 3869 ng·h/mL
Mus musculus [25]
  Activity: Dose-dependent-effect
Mus musculus [26]
  Activity: Active
[27]
  Tmax: 1.5 h
Mus musculus [28]
  inhibition: Dose-dependent-effect
